Measured values as given in patent US9487749B2 (priority 2009, dated 2016).
“And” between values parts separate entries of the source, which are not always exact repeats. Identical values can stand only once.

Experiments:
Format in all cases: cell-based
[1] = tested on: Lactobacillus acidophilus; experiment: Lactobacillus acidophilus milk growth in simulated gastric acid supplemented with MSM; settings: for Log Growth of L. acidophilus in milk average / Log Growth of L. acidophilus in milk in duplicate: simulated gastric acid pH 1.2
[2] = tested on: White Labs Edinburgh Ale yeast; experiment: Fermentation efficiency in production of beer (Scotch Ale) with 0.5% MSM; settings: for F.G. (Adjusted for Alc and Temp): 0.5% MSM fermentor
Excerpt: This positive impact includes such organisms as fungi, yeast, and bacteria. Yeast cultures are involved in the production of beer during the fermentation process to produce ethanol and carbon dioxide. […] Wort is the liquid extracted from the mashing process during the brewing of beer or whisky. Wort contains the sugars that are fermented by the brewing yeast to produce alcohol. […] This Procedure is detailed below. […] (1) glass jugs, airlocks and funnel were thoroughly cleaned and then rinsed with beer sanitizer; (2) 1000 mLs of water was boiled then 100 grams of DME was added; (3) sample was boiled for 10 minutes; […] The Treatment Starter batch was then placed in a sanitized 64 ounce glass jug using to which 1-vial of White Labs Edinburgh Ale yeast was added. The airlock was applied and the entire vessel was placed in a dark room at room temperature for 48 hours. […] (1) glass jugs, airlocks and funnel were thoroughly cleaned and then rinsed with beer sanitizer; (2) 1000 mLs of water was boiled then 100 grams of DME was added; (3) sample was boiled for 10 minutes; (4) sample was removed from heat; and (5) solution was allowed to cool to 72° F. The Treatment Starter batch was then placed in a sanitized 64 ounce glass jug using to which 1-vial of White Labs Edinburgh Ale yeast was added. The airlock was applied and the entire vessel was placed in a dark room at room temperature for 48 hours. […] Materials to prepare the mash included the following: 18 lb of American 2-Row base grain; 3 lb of Crystal Malt 40 L specialty grain; 1 lb […] specialty grain; and water. A mash tun (a vessel used in the mashing process to convert the starches in crushed grains into sugars for fermentation) and Brew kettle were cleaned with powdered brewers wash and rinsed thoroughly. The mash tun was then sanitized (San Star Brewing Sanitizer). The following grains were crushed and milled for mashing: 18 lb of American 2-Row base grain; 3 lb of Crystal Malt 40 L specialty grain; and 1 lb […] specialty grain. […] The crushed grains were then added and the solution was mixed thoroughly. The lid was attached and the solution allowed to mash for 60 minutes. […] Strike water was preheated to 168° F., added to the mash tun and mix thoroughly with grain. The mixture was allowed to incubate for 10 minutes. […] After preparing the mash, the brewing process was started. […] Equipment was cleaned thoroughly with PBW. The wort chiller and filtered air stone were sanitized with brewing sanitizer (San Star Brewing Sanitizer). […] At 30 minutes of boil, a second aliquot (0.5 ounces) of Cascade hops was added. At 40 minutes of boil, third aliquot (0.5 ounces) of Cascade hops was added as well as 2 teaspoons of […] Moss. At 50 minutes of boil, a fourth aliquot (0.5 ounces) of Cascade hops was added. […] Each fermentor was Brix tested every 24 hours for 21 days. Both fermentors were aerated for 25 minutes with sanitized filtered air stone. MSM infused yeast was pitched into treatment fermentor vessel while unaltered yeast was pitched into control fermentor vessel. Blow-off tubes were attached to both fermentors and fermentation was allowed to proceed for 21 days.

[3] = tested on: normal flora found in the milks; experiment: Growth of non-probiotic microorganisms in Acidophilus milk (standard plate counts)
Protocol: 31, 2013. […] The Acidophilus milk was low fat (Darigold). […] This was performed to look at how MSM would affect the normal flora found in the milks. Day 0 was the day the samples were setup for the start of the study. The Acidophilus plus Bifidus milk started with a higher count at Day 0 than what is typically expected. This caused the end values to be elevated. The Acidophilus milk product at Day 0 was at expected values. The Acidophilus milk maintained adequate growth rates through out the study and were equivalent to typical growth rates seen in milk products.

[4] = tested on: Rhinovirus type 14 (ATCC #VR-284)

Question: With CS(C)(=O)=O [MSM, Methylsulfonylmethane] as the molecule, how does the “increase in log growth from previous time point” value ([1]; 5.0% MSM, 24 hours) read?
Answer: 0.23 logs

Question: What about the “decrease in log growth from previous time point” value (shortened to “decrease in log growth”) ([1]; 5.0% MSM, Hour 48) of the same molecule?
Answer: 0.33 logs

Question: What about the “Log Growth of L. acidophilus in milk average” value (from here on “Log Growth … in milk average”) ([1]; 5% MSM, hour 0) of the same molecule?
Answer: 0.41 log

Question: And the “Log Growth … in milk average” value ([1]; 5% MSM, hour 3)?
Answer: 0.41 log

Question: And the “Log Growth of L. acidophilus in milk in duplicate” value (from here on “Log Growth … in duplicate”) ([1]; 5% MSM, hour 6)?
Answer: 0.82 log and 1 log

Question: What about the “Log Growth … in milk average” value ([1]; 5% MSM, hour 6) of the same molecule?
Answer: 0.91 log

Question: What about the “Log Growth … in duplicate” value ([1]; 5% MSM, hour 9) of the same molecule?
Answer: 0.52 log

Question: And the “Log Growth … in milk average” value ([1]; 5% MSM, hour 9)?
Answer: 0.52 log

Question: What about the “Log Growth … in milk average” value ([1]; 5% MSM, hour 12) of the same molecule?
Answer: 1.10 log

Question: And the “Log Growth … in duplicate” value ([1]; 5% MSM, hour 15)?
Answer: 1.43 log

Question: What about the “Log Growth … in milk average” value ([1]; 5% MSM, hour 15) of the same molecule?
Answer: 1.43 log

Question: And the “Log Growth … in duplicate” value ([1]; 5% MSM, hour 24)?
Answer: 1.67 log and 1.64 log

Question: And the “Log Growth … in milk average” value ([1]; 5% MSM, hour 24)?
Answer: 1.66 log

Question: What about the “Log Growth … in duplicate” value ([1]; 5% MSM, hour 48) of the same molecule?
Answer: 1.22 log and 1.43 log

Question: What about the “Log Growth … in milk average” value ([1]; 5% MSM, hour 48) of the same molecule?
Answer: 1.33 log

Question: And the “log growth higher than control” value ([1]; 5.0% MSM, listed as order: hour 15, maximum vs control maximum)?
Answer: 0.45 logs and 0.68 logs

Question: What about the “increase in log growth from previous time point” value ([1]; […] MSM (so in the source), 24 hours) of the same molecule?
Answer: 0.30 logs

Question: And the “decrease in log growth” value ([1]; […] MSM, 24 hours)?
Answer: 0.11 logs

Question: What about the “decrease in log growth” value ([1]; […] MSM, Hour 48) of the same molecule?
Answer: 0.38 logs

Question: What about the “Log Growth … in duplicate” value ([1]; […] MSM, hour 0) of the same molecule?
Answer: 0 log

Question: What about the “Log Growth … in milk average” value ([1]; […] MSM, hour 0) of the same molecule?
Answer: 0 log

Question: And the “Log Growth … in milk average” value ([1]; […] MSM, hour 9)?
Answer: 0.41 log

Question: What about the “increase in logs from hour 15 to 24” value ([1]; […] and 5.0% MSM) of the same molecule?
Answer: ≥ 0.24 logs

Question: And the “F.G. (Adjusted for Alc and Temp)” value ([2]; Day 1)?
Answer: 1.026

Question: What about the “F.G. (Adjusted for Alc and Temp)” value ([2]; Day 2) of the same molecule?
Answer: 1.018

Question: And the “F.G. (Adjusted for Alc and Temp)” value ([2]; Day 3)?
Answer: 1.016

Question: And the “F.G. (Adjusted for Alc and Temp)” value ([2]; Day 4)?
Answer: 1.016

Question: And the “F.G. (Adjusted for Alc and Temp)” value ([2]; Day 5)?
Answer: 1.015

Question: What about the “F.G. (Adjusted for Alc and Temp)” value ([2]; Day 6) of the same molecule?
Answer: 1.015

Question: What about the “F.G. (Adjusted for Alc and Temp)” value ([2]; Day 7) of the same molecule?
Answer: 1.015

Question: And the “F.G. (Adjusted for Alc and Temp)” value ([2]; Day 8)?
Answer: 1.015

Question: And the “F.G. (Adjusted for Alc and Temp)” value ([2]; Day 9)?
Answer: 1.015

Question: And the “F.G. (Adjusted for Alc and Temp)” value ([2]; Day 10)?
Answer: 1.015

Question: What about the “F.G. (Adjusted for Alc and Temp)” value ([2]; Day 11) of the same molecule?
Answer: 1.015

Question: What about the “F.G. (Adjusted for Alc and Temp)” value ([2]; Day 12) of the same molecule?
Answer: 1.015

Question: What about the “F.G. (Adjusted for Alc and Temp)” value ([2]; Day 13) of the same molecule?
Answer: 1.015

Question: What about the “F.G. (Adjusted for Alc and Temp)” value ([2]; Day 14) of the same molecule?
Answer: 1.015

Question: And the “F.G. (Adjusted for Alc and Temp)” value ([2]; Day 15)?
Answer: 1.015

Question: And the “F.G. (Adjusted for Alc and Temp)” value ([2]; Day 16)?
Answer: 1.015

Question: What about the “F.G. (Adjusted for Alc and Temp)” value ([2]; Day 17) of the same molecule?
Answer: 1.015

Question: And the “F.G. (Adjusted for Alc and Temp)” value ([2]; Day 18)?
Answer: 1.015

Question: What about the “F.G. (Adjusted for Alc and Temp)” value ([2]; Day 19) of the same molecule?
Answer: 1.015

Question: And the “F.G. (Adjusted for Alc and Temp)” value ([2]; Day 20)?
Answer: 1.015

Question: And the “F.G. (Adjusted for Alc and Temp)” value ([2]; Day 21)?
Answer: 1.015

Question: And the “time to maximum fermentation” value ([2]; 0.5% MSM treatment batch)?
Answer: 5 days

Question: What about the “sooner time of completion” value ([2]; 0.5% MSM treatment batch vs control (6 days)) of the same molecule?
Answer: 17-25%

Question: And the time to activity ([2]; fermentor with 0.5% MSM)?
Answer: 3.5 h

Question: And the “activity sooner than the control” value ([2]; fermentor with 0.5% MSM (3.5 hours compared to 9 hours))?
Answer: 58%

Question: What about the “activity sooner than the control” value ([2]; yeast starter with 0.5% MSM (2 hours compared to 10 hours)) of the same molecule?
Answer: 80%

Question: What about the “growth of normal flora (standard plate counts)” value ([3]; 5.0% MSM, throughout the study) of the same molecule?
Answer: did not allow any significant growth

Question: What about the “Growth of non-probiotic microorganisms in Acidophilus Milk” value (shortened to “Growth of non-probiotic microorganisms”) ([3]; A/B milk, […] MSM, Day 0) of the same molecule?
Answer: 370 cfu per mL

Question: What about the “Growth of non-probiotic microorganisms” value ([3]; A/B milk, […] MSM, Day 3) of the same molecule?
Answer: 480 cfu per mL

Question: What about the “Growth of non-probiotic microorganisms” value ([3]; A/B milk, […] MSM, Day 7) of the same molecule?
Answer: 570 cfu per mL

Question: And the “Growth of non-probiotic microorganisms” value ([3]; A/B milk, […] MSM, Day 14)?
Answer: 1460 cfu per mL

Question: What about the “Growth of non-probiotic microorganisms” value ([3]; A/B milk, […] MSM, Day 21) of the same molecule?
Answer: 3500 cfu per mL

Question: And the “Growth of non-probiotic microorganisms” value ([3]; A/B milk, […] MSM, Day 28)?
Answer: 110000 cfu per mL

Question: What about the “Growth of non-probiotic microorganisms” value ([3]; acidophilus milk, 0.50% MSM, Day 0) of the same molecule?
Answer: 20 cfu per mL and 30 cfu per mL

Question: What about the “Growth of non-probiotic microorganisms” value ([3]; acidophilus milk, 0.50% MSM, Day 3) of the same molecule?
Answer: 10 cfu per mL

Question: What about the “Growth of non-probiotic microorganisms” value ([3]; acidophilus milk, 0.50% MSM, Day 7) of the same molecule?
Answer: 10 cfu per mL

Question: What about the “Growth of non-probiotic microorganisms” value ([3]; acidophilus milk, 0.50% MSM, Day 14) of the same molecule?
Answer: 20 cfu per mL

Question: What about the “Growth of non-probiotic microorganisms” value ([3]; acidophilus milk, 0.50% MSM, Day 21) of the same molecule?
Answer: 20 cfu per mL and 40 cfu per mL

Question: What about the “Growth of non-probiotic microorganisms” value ([3]; acidophilus milk, 5% MSM, Day 0) of the same molecule?
Answer: 10 cfu per mL and 20 cfu per mL

Question: And the “Growth of non-probiotic microorganisms” value ([3]; acidophilus milk, 5% MSM, Day 3)?
Answer: 10 cfu per mL

Question: What about the “Growth of non-probiotic microorganisms” value ([3]; acidophilus milk, 5% MSM, Day 7) of the same molecule?
Answer: 10 cfu per mL and 20 cfu per mL

Question: And the “Growth of non-probiotic microorganisms” value ([3]; acidophilus milk, 5% MSM, Day 14)?
Answer: 20 cfu per mL and 10 cfu per mL

Question: What about the “Growth of non-probiotic microorganisms” value ([3]; acidophilus milk, 5% MSM, Day 21) of the same molecule?
Answer: 20 cfu per mL and 10 cfu per mL

Question: What about the “Growth of non-probiotic microorganisms” value ([3]; acidophilus milk, 5% MSM, Day 28) of the same molecule?
Answer: 10 cfu per mL

Question: What about the “Growth of non-probiotic microorganisms” value ([3]; acidophilus milk, […] MSM, Day 0) of the same molecule?
Answer: 10 cfu per mL

Question: What about the “Growth of non-probiotic microorganisms” value ([3]; acidophilus milk, […] MSM, Day 14) of the same molecule?
Answer: <10 cfu per mL

Question: What about the “Average Log Stimulation” value [4] of the same molecule?
Answer: 0.053 log10 and 0.11 log10

Question: What about the “Average Percent Stimulation” value [4] of the same molecule?
Answer: 11.49% and 22.38%

Question: And the “Average TCID50” value [4]?
Answer: 4.42 log10 and 5.00 log10 and 5.58 log10 and 5.42 log10 and 5.67 log10 and 5.25 log10

Question: What about the “Log Stimulation” value [4] of the same molecule?
Answer: 0.08 log10 and 0.00 log10 and 0.17 log10

Question: And the TCID50 [4]?
Answer: 4.25 log10 and 4.50 log10 and 4.75 log10 and 5.00 log10 and 5.25 log10 and 5.50 log10 and 6.00 log10 and 5.75 log10
